Experimental data from patent US5330973A, “Lipopeptide derivatives” (Merck & Co., Inc., priority 1990, dated 1994).

What was measured:
[1] = system: C. tropicalis; assay: Minimum fungicidal concentration, microbroth dilution assay in YNBD; assay type: cell-based; settings: C. tropicalis MY 1012
Description: (§1) The compounds of the present invention are active against many fungi and particularly against Candida species. […] In carrying out the assay, Compound A-2a and A-3a were solubilized in 10% dimethyl sulfoxide (DMSO) and diluted to 2560 μg/ml. The compounds were then diluted to 256 μg/ml in YNBD. […] of the suspension was dispensed to the top row of a 96-well plate (each well containing 0.15 ml of YNDB) resulting in a drug concentration of 128 μg/ml. Two-fold dilutions were then made from the top row to obtain final drug concentrations ranging from 128 to 0.06 μg/ml. The yeast cultures, maintained on Sabouraud dextrose agar were transferred to YM broth (Difco) and incubated overnight at 35° C. with shaking (250 rpm). […] The microplates were incubated at 35° C. for 24 hours. The minimum inhibitory concentrations (MICs) were recorded as the lowest concentrations of drug showing no visible growth. After recording the MIC, the plates were shaken to resuspend the cells. Thereafter, […] samples from the wells in the 96-well microplate were transferred to a single well tray containing Sabouraud dextrose agar. The inoculated trays were incubated 24 hours at 28° C. and then read. […]

[2] = system: C. albicans; assay: as above; assay type: cell-based
Description: as §1

[3] = system: C. parapsilosis; assay: as above; assay type: cell-based; settings: C. parapsilosis MY 1010
Description: as §1

[4] = system: Pneumocystis carinii; assay: Pneumocystis carinii pneumonia in immunosuppressed rats, elimination of cysts; assay type: in vivo, Sprague-Dawley rats; settings: I.P. twice daily for four days, lungs read by microscopic analysis of stained slides
Description: In a representative study, the effectiveness of Compound A-2a was determined. Sprague-Dawley rats (weighing approximately 250 grams) were immuno-suppressed with dexasone in the drinking water (2.0 mg/L) and maintained on a low protein diet for five weeds to induce the development of pneumocystis pneumonia from a latent infection. […] Six rats (weighing approximately 150 grams) were injected twice daily for four days intraperitoneally (I.P.) with Compound A-2a in 0.25 ml of vehicle (distilled water). A vehicle control was also carried out. All animals continued to receive dexasone in the drinking water and low protein diet during the treatment period. At the completion of the treatment, all animals were sacrificed, the lungs were removed and processed, and the extent of disease determined by microscopic analysis of stained slides.
In a similar experiment, the animals were sacrificed, the lungs removed and processed, and the extent of disease determined by microscopic analysis of stained slides.

Row | Substance | Minimum Fungicidal Concentration [1] | Minimum Fungicidal Concentration ([2]; C. albicans MY 1028) | Minimum Fungicidal Concentration ([2]; C. albicans MY 1055) | Minimum Fungicidal Concentration ([2]; C. albicans MY 1208) | Minimum Fungicidal Concentration [3] | ED90 for eliminating P. carinii cysts [4]
1 | 1-[N2-(10,12-dimethyl-1-oxotetradecyl)-ornithine]-4-[3,4-dihydroxy-4'-O-pho sphoryl-homotyrosine]-5-[3-hydroxyglutamine] echinocandin B [Compound A-3a] | 1 µg/mL | 4 µg/mL | 2 µg/mL | 4 µg/mL | > 128 µg/mL | approximately 2.5 mg/kg
2 | 1-[4-hydroxy-N2-(10,12-dimethyl-1-oxotetradecyl)-ornithine]-4-[3-hydroxy-4' -O-phosphoryl-homotyrosine]-5-[3-hydroxyglutamine]echinocandin B [Compound A-2a] | 0.5 µg/mL | 1 µg/mL | 1 µg/mL | 1 µg/mL | 16 µg/mL | approximately 2 mg/kg
